Measurements: patent US8044198B2, “Sirtuin modulating compounds” (Sirtris Pharmaceuticals, Inc., priority 2005, dated 2011)

Target: T1, SIRT1 (Homo sapiens, UniProt Q96EB6)
T1 sequence (Q96EB6 1-747): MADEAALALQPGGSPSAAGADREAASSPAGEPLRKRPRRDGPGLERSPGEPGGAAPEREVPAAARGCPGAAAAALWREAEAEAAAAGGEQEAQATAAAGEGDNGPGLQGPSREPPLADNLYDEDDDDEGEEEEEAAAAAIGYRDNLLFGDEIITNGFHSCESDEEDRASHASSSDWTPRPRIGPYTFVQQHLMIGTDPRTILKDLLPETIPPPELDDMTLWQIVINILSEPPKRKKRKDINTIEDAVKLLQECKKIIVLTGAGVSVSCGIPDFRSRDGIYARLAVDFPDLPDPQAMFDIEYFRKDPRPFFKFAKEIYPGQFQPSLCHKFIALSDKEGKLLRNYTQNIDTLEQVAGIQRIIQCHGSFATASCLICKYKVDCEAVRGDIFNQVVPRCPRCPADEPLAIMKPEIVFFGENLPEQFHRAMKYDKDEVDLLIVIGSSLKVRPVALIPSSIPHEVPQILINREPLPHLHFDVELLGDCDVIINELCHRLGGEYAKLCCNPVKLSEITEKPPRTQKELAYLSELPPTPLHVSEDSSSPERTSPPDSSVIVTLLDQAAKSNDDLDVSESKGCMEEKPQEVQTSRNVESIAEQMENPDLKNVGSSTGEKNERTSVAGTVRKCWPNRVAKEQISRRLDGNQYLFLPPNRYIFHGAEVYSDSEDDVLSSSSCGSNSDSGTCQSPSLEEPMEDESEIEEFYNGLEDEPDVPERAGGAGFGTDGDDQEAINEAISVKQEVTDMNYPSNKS
Test: SIRT1 mass spectrometry (MS) based deacetylation assay; as to FOLD ACT. MS: test concentration or dose not given here
Assay type: biochemical
Conditions: for EC50: SIRT1 activation, mass spectrometry assay, read-out: ED50 MS ASSAY; for FOLD ACT. MS: fold activation of SIRT1, mass spectrometry assay

| SMILES | EC50 | FOLD ACT. MS |
| --- | --- | --- |
| COc1ccc(C(=O)Nc2ccccc2-c2cnc3ccccc3c2)c(OC)c1 [Compound 413] | 51 to 100 µM | B (B (Fold Activation <250%)) |
| COc1ccc(C(=O)Nc2ccccc2-c2cnc3ccccc3c2)cc1OC [Compound 414] | 5 to 50 µM | B (B (Fold Activation <250%)) |
| COc1cc(C(=O)Nc2ccccc2-c2cnc3ccccc3c2)cc(OC)c1OC [Compound 415] | 51 to 100 µM | B (B (Fold Activation <250%)) |
| COc1ccc(C(=O)Nc2ccccc2-c2nc3cnccc3o2)c(OC)c1OC [Compound 421] | 5 to 50 µM | B (B (Fold Activation <250%)) |
| COc1ccc(C(=O)Nc2ccc(-c3nc4cnccc4o3)s2)c(OC)c1 [Compound 422] | 5 to 50 µM | B (B (Fold Activation <250%)) |
| COc1ccc(C(=O)Nc2ccc(-c3nc4cnccc4o3)s2)cc1OC [Compound 423] | < 5 µM | B (B (Fold Activation <250%)) |
| COc1cc(C(=O)Nc2ccc(-c3nc4cnccc4o3)s2)cc(OC)c1OC [Compound 426] | < 5 µM | B (B (Fold Activation <250%)) |
| CN(C)c1cccc(C(=O)Nc2ccc(-c3nc4cnccc4o3)s2)c1 [Compound 427] | < 5 µM | B (B (Fold Activation <250%)) |
| COc1ccc(C(=O)Nc2cccc(-c3nc4ccncc4o3)c2)c(OC)c1 [Compound 429] | < 5 µM | B (B (Fold Activation <250%)) |
| COc1cc(C(=O)Nc2cccc(-c3nc4ccncc4o3)c2)cc(OC)c1OC [Compound 430] | 5 to 50 µM | A (A (Fold activation >250%)) |
| CN(C)c1ccc(C(=O)Nc2cccc(-c3nc4ccncc4o3)c2)cc1 [Compound 431] | 5 to 50 µM | B (B (Fold Activation <250%)) |
| COc1cc(C(=O)Nc2ccccc2-c2nc3ccncc3s2)ccc1CN1CCCC1 [Compound 436] | 5 to 50 µM | A (A (Fold activation >250%)) |
| COc1ccc(C(=O)Nc2ccccc2-c2cn3cccnc3n2)c(OC)c1 [Compound 437] | 5 to 50 µM | B (B (Fold Activation <250%)) |
| COc1ccc(C(=O)Nc2ccccc2-c2cn3cccnc3n2)cc1OC [Compound 438] | < 5 µM | A (A (Fold activation >250%)) |
| COc1cc(C(=O)Nc2ccccc2-c2cn3cccnc3n2)cc(OC)c1OC [Compound 439] | < 5 µM | B (B (Fold Activation <250%)) |
| O=C(Nc1ccccc1-c1cn2c(CN3CCNCC3)csc2n1)c1ccc2ccccc2n1 [Compound 440] | < 5 µM | A (A (Fold activation >250%)) |
| O=C(Nc1ccccc1-c1cn2c(CN3CCNCC3)csc2n1)c1cnc2ccccc2n1 [Compound 441] | < 5 µM | A (A (Fold activation >250%)) |
| Cc1c(C(=O)Nc2ccccc2-c2cn3c(CN4CCNCC4)csc3n2)oc2ccccc12 [Compound 442] | < 5 µM | A (A (Fold activation >250%)) |
| Cc1cc(C(=O)Nc2ccccc2-c2cn3c(CN4CCNCC4)csc3n2)c(C)o1 [Compound 443] | 5 to 50 µM | A (A (Fold activation >250%)) |
| CSc1ccc(C(=O)Nc2ccccc2-c2cn3c(CN4CCNCC4)csc3n2)cc1 [Compound 444] | 5 to 50 µM | A (A (Fold activation >250%)) |
| O=C(Cc1ccccc1)Nc1ccccc1-c1cn2c(CN3CCNCC3)csc2n1 [Compound 445] | 5 to 50 µM | B (B (Fold Activation <250%)) |
| O=C(Nc1ccccc1-c1cn2c(CN3CCNCC3)csc2n1)c1cccs1 [Compound 446] | 5 to 50 µM | B (B (Fold Activation <250%)) |
| COc1cc(OC)cc(C(=O)Nc2cccc(-c3nc4ccncc4o3)c2)c1 [Compound 451] | 5 to 50 µM | B (B (Fold Activation <250%)) |
| COc1ccc(C(=O)Nc2cccc(-c3nc4ccncc4o3)c2)c(OC)c1OC [Compound 452] | 5 to 50 µM | B (B (Fold Activation <250%)) |
